One experiment concerns the target Human recombinant PARP1 (Homo sapiens, UniProt P09874). Kind of experiment: RBC HotSpot PARP1 assay (radioisotope-based filter binding). It is filed as biochemical. As to the method: The following methods are for evaluating the in vitro biology properties of the test articles. • a. RBC HotSpot Poly(ADP-ribose) Polymerases 1 (PARP1) and Poly(ADP-ribose) Polymerases 2 (PARP2) Assays: The assay was conducted at Reaction Biology Corporation (RBC; Malvern, PA). The assay principle is radioisotope-based filter binding assay where incorporation of radioisotope-labeled NAD^+ into the substrate captured on filter is detected after washout free NAD^+. Data were analyzed using Excel and GraphPad Prism software for IC50 curve fits. Each assay was conducted with PJ34 as a positive control. PARP1 assay: Human recombinant PARP1 at a final concentration of 2.5 nM was combined with histone H4 (20 μM) and test articles at various concentrations in reaction buffer (50 mM Tris-HCL, pH 8.0, 50 mM NaCl, 10 mM MgCl2, 1 mM DTT, 1% DMSO, and 20 μg/mL activated DNA). The solution was inoculated for 20 min at room temperature and the reaction initiated by adding [adenylate-^32P]-Nicotinamide Adenine Dinucleotide, ^32P-NAD^+ at a final concentration of 10 μM. After incubation for 2 hrs at room temperature, the reaction mixture was filtered and washed with 0.75% phosphoric acid for radioactivity detection. • ii. PARP2 assay: Human recombinant PARP2 at a final concentration of 2.5 nM was combined with histone H3 (20 μM) and test articles at various concentrations in reaction buffer (50 mM Tris-HCL, pH 8.0, 50 mM NaCl, 10 mM MgCl2, 1 mM DTT, 1% DMSO, and 20 μg/mL activated DNA). The solution was inoculated for 20 min at room temperature and the reaction was initiated by adding [adenylate-^32P]-Nicotinamide Adenine Dinucleotide, ^32P-NAD^+ at a final concentration of 10 μM. After incubation for 2 hrs at room temperature, the reaction mixture was filtered and washed with 0.75% phosphoric acid for radioactivity detection. • b. AR binding assay: AR in LNCaP cytosol was used for determining the binding affinity of test articles and the reference compound—progesterone (Sigma, Cat: E2785, St. Louis, MO). IC50 s were determined using 8 concentrations/compound. Cytosol is plated at 200 μg/well (100 μL) into a 96-well conical polypropylene plate (Agilent, Cat: 5042-1385, Santa Clara, CA) and mixed with 3 μL of test compound. After adding 100 μL of ^3H-methyltrienolone (PerkinElmer, Cat: NET590250UC, San Jose, CA), the plate was sealed and shaken at 300 rpm at 4° C. for 24 hours. Post incubation, 100 μL of radioligand adsorption buffer containing 10 mM Tris-HCl, pH 7.4; 1.5 mM EDTA; 1 mM DTT; 0.25% charcoal; 0.0025% dextran was added to individual wells. Plate was shaken for 15 min at 4° C. followed by centrifugation at 3000 rpm for 30 min at 4° C. 150 μL of supernatant is transferred into scint-tube (PerkinElmer, Cat: 6000192) and mixed with 2 mL of Ultima Gold Cocktail (PerkinElmer, Cat: 6013329). Radioactivity is counted using a TriCarb 2910 TR scintillation counter (PerkinElmer). Inhibition of the radioactivity by test articles was calculated using the equation below: % Inhibition=(1−(Assay well−Average_LC)/(Average_HC−Average_LC))×100%. • IC50 values (Table 6) were calculated and graphed using the model “log(inhibitor) vs. response—Variable slope” included in GraphPad Prism 5 (San Diego, CA). The Ki values were further calculated using the equation below where [L] is the radioligand concentration (1 nM) used in this study. Kd value was 0.332 nM. Ki=IC50/(1+[L]/Kd) • c. AR transactivation: Human AR cloned into a CMV vector backbone is used for the transactivation study. HEK-293 cells are plated at 80,000 cells per well of a 24 well plate in DME+5% csFBS. Twenty four hours later, the cells are transfected using Lipofectamine (Invitrogen, Carlsbad, CA) with 0.25 μg GRE-LUC, 0.01 μg CMV-LUC (renilla luciferase) and 25 ng of the AR in OPTIMEM medium. The cells are treated 24 hrs after transfection with various ligands (10^−12 to 10^−5 M final concentrations) and luciferase assay performed 48 hours after transfection. […]

The target of experiment [1] is T1, Progesterone PR-B receptors from human breast carcinoma T47D cells (Homo sapiens, UniProt P06401).
T1 construct: endogenous in cells; host or cells: T47D human breast carcinoma cells (cell supernatant)
T1 sequence (P06401 1-933): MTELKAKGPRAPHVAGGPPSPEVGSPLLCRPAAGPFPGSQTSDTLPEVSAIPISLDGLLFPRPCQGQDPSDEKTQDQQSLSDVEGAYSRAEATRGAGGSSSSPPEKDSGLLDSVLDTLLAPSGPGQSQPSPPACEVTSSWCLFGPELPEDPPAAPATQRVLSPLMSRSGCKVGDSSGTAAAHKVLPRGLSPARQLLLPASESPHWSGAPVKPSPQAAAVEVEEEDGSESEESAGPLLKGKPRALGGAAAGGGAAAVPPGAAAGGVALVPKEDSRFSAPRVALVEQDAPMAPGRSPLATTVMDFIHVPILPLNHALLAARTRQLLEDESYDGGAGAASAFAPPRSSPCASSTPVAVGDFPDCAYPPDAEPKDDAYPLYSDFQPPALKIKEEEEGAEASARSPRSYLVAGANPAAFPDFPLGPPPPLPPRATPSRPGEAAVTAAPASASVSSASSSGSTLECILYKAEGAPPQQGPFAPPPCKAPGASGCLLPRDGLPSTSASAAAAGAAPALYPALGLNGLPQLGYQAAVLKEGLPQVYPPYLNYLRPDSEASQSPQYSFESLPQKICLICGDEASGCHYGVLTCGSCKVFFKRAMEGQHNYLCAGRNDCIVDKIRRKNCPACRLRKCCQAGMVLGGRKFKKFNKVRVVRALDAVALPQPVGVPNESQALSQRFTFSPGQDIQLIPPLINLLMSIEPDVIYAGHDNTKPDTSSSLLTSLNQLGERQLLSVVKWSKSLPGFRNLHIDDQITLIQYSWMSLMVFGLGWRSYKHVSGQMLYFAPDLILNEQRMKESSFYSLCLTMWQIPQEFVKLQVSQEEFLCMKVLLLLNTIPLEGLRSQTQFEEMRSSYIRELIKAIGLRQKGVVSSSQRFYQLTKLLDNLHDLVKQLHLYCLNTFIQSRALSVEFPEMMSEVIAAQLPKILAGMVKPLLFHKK
Kind of experiment: PR binding assay, [3H]Progesterone. As to conditions: Table 8; 0.5 nM [3H]Progesterone. As to the method: PR binding assay: Progesterone PR-B receptors from human breast carcinoma T47D cells are used in modified Na2HPO4/NaH2PO4 buffer pH 7.4. Compounds were screened at a range of doses (Top dose 40 nM, 4 fold serial dilution, 8 point dose response) and were dispensed into the assay plate. Supernatant of 1.2×10^5 cells aliquot was added to the assay plate and was incubated with 0.5 nM [^3H]Progesterone for 20 hours at 4° C. Membranes are filtered and washed, the filters are then counted to determine [^3H]Progesterone specifically bound. Binding IC50 was determined as the concentration where 50% inhibition of radioligand binding was observed.

Read-outs that look alike come from different tables or passages of the source. Where only a bound is given, the exact number is not on record here.

Sequence of Human recombinant PARP1 (P09874 whole entry): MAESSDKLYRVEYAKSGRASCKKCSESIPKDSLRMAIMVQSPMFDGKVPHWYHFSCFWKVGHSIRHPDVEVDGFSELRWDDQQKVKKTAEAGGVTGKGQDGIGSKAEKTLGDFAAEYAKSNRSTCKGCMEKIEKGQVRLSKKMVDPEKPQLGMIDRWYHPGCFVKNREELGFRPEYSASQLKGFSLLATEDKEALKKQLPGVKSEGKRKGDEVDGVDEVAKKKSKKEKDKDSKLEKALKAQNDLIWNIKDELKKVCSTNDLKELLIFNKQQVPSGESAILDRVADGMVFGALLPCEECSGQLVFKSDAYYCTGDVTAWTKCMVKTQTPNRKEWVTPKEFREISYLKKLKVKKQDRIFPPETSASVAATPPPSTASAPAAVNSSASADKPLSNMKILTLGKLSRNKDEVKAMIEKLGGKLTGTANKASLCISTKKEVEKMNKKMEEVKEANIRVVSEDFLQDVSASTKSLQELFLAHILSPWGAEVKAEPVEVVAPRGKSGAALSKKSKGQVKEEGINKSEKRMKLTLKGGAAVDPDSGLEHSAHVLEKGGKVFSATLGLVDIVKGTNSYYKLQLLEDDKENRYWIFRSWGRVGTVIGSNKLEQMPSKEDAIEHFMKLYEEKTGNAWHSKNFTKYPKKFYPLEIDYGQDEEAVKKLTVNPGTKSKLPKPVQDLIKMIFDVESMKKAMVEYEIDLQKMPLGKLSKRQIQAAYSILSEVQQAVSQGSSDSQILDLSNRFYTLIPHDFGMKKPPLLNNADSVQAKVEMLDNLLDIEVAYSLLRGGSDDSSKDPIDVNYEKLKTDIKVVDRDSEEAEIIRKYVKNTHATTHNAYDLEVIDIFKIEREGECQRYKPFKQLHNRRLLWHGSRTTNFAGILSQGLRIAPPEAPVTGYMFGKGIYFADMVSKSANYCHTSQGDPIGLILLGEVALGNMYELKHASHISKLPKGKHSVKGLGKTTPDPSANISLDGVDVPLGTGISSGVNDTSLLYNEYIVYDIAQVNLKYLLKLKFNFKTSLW

Consider `C[C@]12Cc3cn[nH]c3C[C@@H]1CC[C@@H]1[C@@H]2CC[C@]2(C)[C@@H](OCCCCCC(=O)N3CCN(C(=O)c4cc(Cc5n[nH]c(=O)c6ccccc56)ccc4F)CC3)CC[C@@H]12` [Compound 1394, 4-(3-(4-(6-(((1S,3aS,3bR,5aS,10aS,10bS,12aS)-10a,12a-dimethyl-1,2,3,3a,3b,4,5,5a,6,7,10,10a,10b,11,12,12a-hexadecahydrocyclopenta[5,6]naphtho[1,2-f]indazol-1-yl)oxy)hexanoyl)piperazine-1-carbonyl)-4-fluorobenzyl)phthalazin-1(2H)-one], for which the IC50 on Human recombinant PARP1 (Table 9, read-out: PARP1) lay in the range of 10 to 100 nM.

As for `C[C@]12C[C@H](CCCCCC(=O)N3CCN(C(=O)c4cc(Cc5n[nH]c(=O)c6ccccc56)ccc4F)CC3)C3=C4CCC(=O)C=C4CC[C@H]3[C@@H]1CCC2O` (stereo partly drawn) [Compound 138, 4-(4-fluoro-3-(4-(6-((8S,11S,13S,14S)-17-hydroxy-13-methyl-3-oxo-2,3,6,7,8,11,12,13,14,15,16,17-dodecahydro-1H-cyclopenta[a]phenanthren-11-yl)hexanoyl)piperazine-1-carbonyl)benzyl)phthalazin-1(2H)-one], the IC50 on Human recombinant PARP1 (Table 9, read-out: PARP1) was less than 1 nM. For `CC#C[C@]1(O)CC[C@H]2[C@@H]3CCC4=CC(=O)CCC4=C3[C@@H](c3ccc(N(C)CCCCCC(=O)N4CCN(C(=O)c5cc(Cc6n[nH]c(=O)c7ccccc67)ccc5F)CC4)cc3)C[C@@]21C` [Compound 135, 4-(4-fluoro-3-(4-(6-((4-((8S,11R,13S,14S,17S)-17-hydroxy-13-methyl-3-oxo-17-(prop-1-ynyl)-2,3,6,7,8,11,12,13,14,15,16,17-dodecahydro-1H-cyclopenta[a]phenanthren-11-yl)phenyl)(methyl)amino)hexanoyl)piperazine-1-carbonyl)benzyl)phthalazin-1(2H)-one], the IC50 is less than 10 nM in experiment [1] and 1 to 10 nM at Human recombinant PARP1 (Table 9, read-out: PARP1).

Turning to `C[C@@]12CCC(=O)C[C@H]1CC[C@H]1[C@H]2CC[C@]2(C)[C@@H]1CC[C@H]2OCCCCCCNC(=O)c1cc(Cc2n[nH]c(=O)c3ccccc23)ccc1F` (stereo in doubt) [Compound 1426, N-(6-((5R,8S,9R,10R,13R,14R,17R)-10,13-dimethyl-3-oxohexadecahydro-1H-cyclopenta[a]phenanthren-17-yloxy)hexyl)-2-fluoro-5-((4-oxo-3,4-dihydrophthalazin-1-yl)methyl)benzamide], the IC50 on Human recombinant PARP1 (Table 9, read-out: PARP1) is greater than 100 nM. Regarding `CC#C[C@]1(O)CC[C@H]2[C@@H]3CCC4=CC(=O)CCC4=C3[C@@H](c3ccc(N(C)CCCCCC(=O)NCCOCCOCC(=O)N4CCN(C(=O)c5cc(Cc6n[nH]c(=O)c7ccccc67)ccc5F)CC4)cc3)C[C@@]21C` [Compound 1429, N-(2-(2-(2-(4-(2-fluoro-5-((4-oxo-3,4-dihydrophthalazin-1-yl)methyl)benzoyl)piperazin-1-yl)-2-oxoethoxy)ethoxy)ethyl)-6-((4-((8S,11R,13S,14S,17S)-17-hydroxy-13-methyl-3-oxo-17-(prop-1-ynyl)-2,3,6,7,8,11,12,13,14,15,16,17-dodecahydro-1H-cyclopenta[a]phenanthren-11-yl)phenyl)(methyl)amino)hexanamide], the IC50 in experiment [1] was less than 10 nM; at Human recombinant PARP1 (Table 9, read-out: PARP1), less than 1 nM. As to `CC(=O)O[C@]1(C(C)=O)CC[C@H]2[C@@H]3CCC4=CC(=O)CCC4=C3[C@@H](c3ccc(N(C)CCCCCC(=O)NCCOCCOCC(=O)N4CCN(C(=O)c5cc(Cc6n[nH]c(=O)c7ccccc67)ccc5F)CC4)cc3)C[C@@]21C` [Compound 1384, (8S,11R,13S,14S,17R)-17-acetyl-11-(4-((6-(2-(2-(2-(4-(2-fluoro-5-((4-oxo-3,4-dihydrophthalazin-1-yl)methyl)benzoyl)piperazin-1-yl)-2-oxoethoxy)ethoxy)ethylamino)-6-oxohexyl)(methyl)amino)phenyl)-13-methyl-3-oxo-2,3,6,7,8,11,12,13,14,15,16,17-dodecahydro-1H-cyclopenta[a]phenanthren-17-yl acetate], the IC50 is less than 10 nM in experiment [1] and 1 to 10 nM at Human recombinant PARP1 (Table 9, read-out: PARP1). As to `CC(=O)O[C@]1(C(C)=O)CC[C@H]2[C@@H]3CCC4=CC(=O)CCC4=C3[C@@H](c3ccc(N(C)CCCCCC(=O)N4CCN(C(=O)c5cc(Cc6n[nH]c(=O)c7ccccc67)ccc5F)CC4)cc3)C[C@@]21C` [Compound 1378, (8S,11R,13S,14S,17R)-17-acetyl-11-(4-((6-(4-(2-fluoro-5-((4-oxo-3,4-dihydrophthalazin-1-yl)methyl)benzoyl)piperazin-1-yl)-6-oxohexyl)(methyl)amino)phenyl)-13-methyl-3-oxo-2,3,6,7,8,11,12,13,14,15,16,17-dodecahydro-1H-cyclopenta[a]phenanthren-17-yl acetate], the IC50 in experiment [1] was less than 10 nM; on Human recombinant PARP1 (Table 9, read-out: PARP1) it was 1 to 10 nM. Turning to `Cn1ncnc1C1c2n[nH]c(=O)c3cc(F)cc(c23)N[C@@H]1c1ccc(NC(=O)CCCCCO[C@@H]2CC[C@H]3[C@@H]4CC[C@H]5CCCC[C@]5(C)[C@H]4CC[C@]23C)cc1` (stereo partly drawn) [Compound 1128, 6-((5R,8R,9S,10S,13S,14S,17R)-10,13-dimethylhexadecahydro-1H-cyclopenta[a]phenanthren-17-yloxy)-N-(4-((8S)-5-fluoro-9-(1-methyl-1H-1,2,4-triazol-5-yl)-3-oxo-3,7,8,9-tetrahydro-2H-pyrido[4,3,2-de]phthalazin-8-yl)phenyl)hexanamide], the IC50 on Human recombinant PARP1 (Table 5, in vitro results, read-out: PARP1 IC50) is 252 nM.
